According to patent publication US20140220694A1, “METHODS AND COMPOSITIONS RELATING TO PLATELET SENSITIVITY” (ELECTROPHORETICS LIMITED, priority 2011, published 2014):

Legend:
Assay type in all cases: in vivo, human
[1] = system: platelet protein biomarkers of aspirin resistance; experiment: Aspirin resistance biomarker SRM method (six biomarkers); settings: two aspirin resistant and 10 aspirin sensitive platelet digests
From the text: The six markers are Integrin beta 3 (total) and Integrin beta 3 isoform A, heat shock protein A5, pyruvate kinase isozyme M1/M2, RAB GDP1 alpha & prostaglandin G/H synthase. For each marker two or three proteotypic tryptic peptides were selected and heavy isotope standard synthetic peptides were purchased from a commercial supplier (Thermo Scientific, Belgium). Platelet preparations from Example 3 were also used in the SRM method for simultaneous measurement of six biomarkers of aspirin resistance. Prior to analysis using Platelet Aspirin Resistance assay version 2.0 samples were resuspended in a solution containing 5 fmol/μL of each of the heavy AQUA peptides (See table 2) in the method and 200 μg/mL glucagon. Prior to SRM samples were resolved by RP-chromatography over a 9 minute ACN gradient (5-30%) in 0.2% formic acid at 100 μl/min. The Platelet Aspirin Resistance assay version 2.0 contains 96 SRM transitions, covering 17 peptides from 5 proteins. The SRM cycle time was 2 seconds with retention time windows used to maximise the scan time given to each SRM transition. Including washes and time to equalibrate the column, the total run time of the method was 30 minutes.

[2] = system: Integrin beta 3; experiment: Integrin beta 3 isotyping SRM assay, post:pre aspirin ratio
Method: 50 ml of whole blood was drawn from subjects into trisodium citrate (final concentration 0.32%) from the antecubital vein using a Butterfly® 19-guage siliconised needle. Blood was centrifuged (20 min, 200×g, room temperature (RT)) to obtain platelet rich plasma (PRP) that was acidified with the addition of 0.3M citric acid (target pH 6.5). Further centrifugation (15 min, 1200×g, RT) produced the platelet pellet that was immediately re-suspended in citrate wash buffer (refer to Appendix 1 for composition) and prostaglandin E1 (Sigma) was added to a final concentration of 10 nM. Removal of residual red cells and monocytes was performed by further centrifugation (3 min, 200×g, RT) and decanting of the platelet rich supernatant. Final centrifugation (15 min, 1200×g, RT) produced the washed platelet pellet that was stored at −80° C. The washed platelet pellet was re-suspended in lysis buffer (NaCl 150 mM, Tris-base 32 mM, NaF 50 mM, Na orthovanadate 1 mM to which 1 ml ethylenediaminetetraacetic acid (EDTA; 0.1M stock solution) and 1 ml Triton-X 100 was added prior to adjusting to pH 7.6 with conc. HCL and volume made up to 100 ml) containing protease inhibitor cocktail (Sigma Aldrich, UK) and placed on ice for 30 min, before agitation on ice for a further 5 min. The sample was centrifuged (5 min, 9000×g, 4° C.) to remove cellular debris. The supernatant was stored at −80° C. Aspirin sensitivity was assessed in individuals prescribed aspirin for secondary prevention using a combination of functional and biochemical assays. […] The amount of endogenous (light) peptide is calculated based on the peak area ratio relative to the 100 fmol spiked heavy peptide. For individuals where samples were available pre and post treatment with Aspirin, a post to pre ratio was calculated to assess any changes in peptide levels. […] For the healthy normal cohort, pre and post aspirin samples were not available and the basal pg measured peptides level per μg total protein were reported.

[3] = system: platelets; experiment: TMTsixplex GeLC-MS/MS discovery proteomics of platelet extracts pre and post aspirin treatment; settings: for peptide/protein expression after aspirin treatment: 300 mg daily, 1 month oral
Method: To address the shortage of sensitive, robust and reliable markers of aspirin resistance the inventors undertook a comparative proteomic study of platelet extracts derived from samples known to be resistant and sensitive following 1 month's oral administration of therapeutic doses of aspirin (300 mg daily).
Briefly, platelets were purified from blood drawn from individuals with functionally documented aspirin resistance (n=2) or sensitivity (n=4). In each case matched samples were drawn pre- and post-aspirin treatment. Proteins were extracted, reduced and alkylated prior to labelling with a sixplex set of isobaric mass tags (TMTsixplex, Proteome Sciences plc; Refer to FIG. 1b). After labelling sets of six samples were pooled according to a randomised schedule and subjected to 1-dimensional SDS-PAGE. Each gel lane was cut into […] and each band subjected to in gel digestion using trypsin prior to analysis by LC-MS/MS to allow protein identification. Relative quantitation of each protein was achieved by comparing the ion intensity and area under the curve for each of the six TMT Reporter Ions and proteins showing a difference in levels between aspirin resistant and sensitive platelets were thus identified.
From 94 healthy subjects, 2 subjects were determined as aspirin resistance using measurements of platelet aggregommetry (agonist's arachidonic acid and ADP) and 11-dehydroTXB2 in urine. To be defined as truly aspirin resistant subjects must have an abnormal response with both measures. Subjects took 300 mg aspirin daily for 1 month.
Preparation of Platelet Samples 60 ml whole blood was obtained from subjects from the antecubital vein using a Butterfly®19-gauge needle, and collected into NaCl trisodium citrate (final concentration 0.38%). […]
Prior to analysis by GeLC-MS/MS 30 μg of each sample within a TMTsixplex experiment were mixed 1:1:1:1:1:1. The combined sample was analysed by GeLC-MS/MS with the entire gel lane being excised into 15 sections. […]

[4] = system: ITGB3 (Glycoprotein IIIa); experiment: Western blotting of platelet lysates with N- and C-terminal specific antibodies; settings: irrespective of platelet responsiveness status
Method: Platelet lysates from subjects (10 μg each) were mixed with equal volumes of Laemmli sample buffer (2×) (125 mM Tris-base, 4% SDS, 20% glycerol, 4% β-mercaptoethanol, 0.04% bromophenol blue), and subsequently loaded onto a 12.5% SDS-PAGE gel. Proteins were transferred onto PVDF membranes, and detected using specific antibodies as follows. Paired blots were incubated with Anti-GP111a C-terminal specific (Santa Cruz Biotechnology, Item code sc-6626, C-20) or anti GP111a N-terminal specific (Santa Cruz Biotechnology, Item code sc-6627, N-20) respectively. Bands were scanned and densitometric analysis performed using Image J system (a Java based image processing program developed by the National Institutes of Health, Bethesda, USA).

[5] = system: integrin beta 3 (ITGB3); experiment: SRM analysis of TMT-labelled platelet peptides, post:pre aspirin ratios
Method: Peptides identified in the discovery study from candidate proteins were taken forward if they were proteotypic and had characteristics suitable for robust SRM quantitation i.e. fully hydrolysed, contained no known modifications (either in vivo or experimental) and had suitable MS/MS fragments for Q3 selection. Up to six peptides per protein were selected for targeted quantitation (Table 2). The m/z of Q1 and Q3 transitions for selected peptides were calculated either from data-dependent sequencing in the discovery study or from in silico analysis using Pinpoint (ThermoFisher). The theoretical optimal collision energies for each transitions were also calculated using the discovery data and Pinpoint (ThermoFisher). Peptide dection and quantitation was based on time-alignment of multiple transitions per peptide (up to six transitions per peptide). Only peptides with consistant detection of multiple time-aligned transitions in all subject samples were used in the final quantitation. The final SRM method was then applied to the quantitative analysis of the experimental sample set. TMT-labeled subject samples (70/90 μg, check) were reduced, alkylated, digested in-solution and purified by RP and SCX chromatography. […] The SRM peak area for each pre-aspirin sample was measured relative to the SRM peak area for each post-aspirin sample. […]

SMILES: CC(=O)Oc1ccccc1C(=O)O [aspirin, acetylsalicyclic acid]
- aspirin-dependant expression of integrin beta 3 isoform A, heat shock protein A5, RAB GDP1 alpha, prostaglandin G/H synthase [1]: consistent changes
- aspirin-dependant expression of pyruvate kinase isozyme M1/M2 [1]: more variable
- integrin beta 3 isoform A level after aspirin ([2]; majority of 10 aspirin sensitive patients): remained level or decreased
- total integrin beta 3 levels after aspirin ([2]; majority of aspirin sensitive patients): remained relatively unchanged
- integrin beta 3 isoform A level after aspirin ([2]; two aspirin resistant patients, 1 month treatment): expected increase
- levels of vinculin, myosin and talin ([3]; housekeeping proteins used for normalisation): not influenced by aspirin treatment
- peptide/protein expression after aspirin treatment ([3]; platelets from aspirin-resistant subjects): mostly down-regulation of peptide/protein expression
- peptide/protein expression after aspirin treatment ([3]; platelets from aspirin-sensitive individuals): remained broadly similar or increased
- intensity of staining of integrin beta 3 band, N-terminus antibody [4]: consistent pre- and post-aspirin treatment
- ITGB3 peptide specific for isoform beta 3A, post:pre aspirin ([5]; aspirin resistant compared to aspirin sensitive subjects): consistently showed significant changes
- ITGB3 peptides common to all three isoforms, protein levels after treatment ([5]; six subjects pre and post aspirin): no difference in protein levels
